Data: patent EP1529533A1, “Use of GH secretagogues in hypoxic-ischemic brain injury” (Sahltech I Göteborg AB, priority 2003, dated 2005)
Where a SMILES comes first, the peptide text is derived from it. [ ]: non-standard residue; d: D form. dTrp(2-Me) = Cc1[nH]c2ccccc2c1C[C@@H](N)C(=O)O

Assay: Body temperature, mortality and body weight in the hypoxia-ischemia study
Type: in vivo, rats
Conditions: between the two groups (hexarelin vs. vehicle); data not shown
Source text: In a neonatal model that has previously been described (Rice J. E., V. R. C. Brierley, Ann. Neurol. 9 (1981), 1126-35; Hagberg H. et al., Acta Paedeatr. Suppl 442 (1997), 85-88). Seven-day-old out bred Wistar Fue rats were anesthetised with enflurane (3,5% for induction and 1,5% for maintenance) in a mixture of nitrous oxide and oxygen on a snout mask. The left common carotid artery was cut between two prolene sutures (9-0). After anesthesia and surgery the animals were returned to there dams and allowed to recover for 60 minutes. They were thereafter exposed to 60 minutes of hypoxia in a humidified chamber at 36°C with 7.7±0.01% oxygen in nitrogen. The pups were returned to and kept with their dams until they were killed at different time points after the insult Animals were either perfused intracardially with saline and 5% buffered formaldehyde (Histofix; Histolab, Göteborg, Sweden) for preparation of paraffin sections or fresh tissue were immediately frozen in isopenthane on dry ice for preparation of protein homogenates. The animal ethics committee in Gothenburg approved the animal studies.
Animals received daily intracerebral injections of 5 µl solution containing either 5µg hexarelin or vehicle (NaCl 0.9 mg/ml). Injections were headed for the left ventricular at 1.5 mm lateral to the Sagittal suture, 5.7 mm rostral to lambda and 2.8 mm deep to the skull surface with a special made needle of 27 gauge. Injection velocity of 1.5 µl/min with a Hamilton syringe connected to a MCA pump.
Brain injury was evaluated and observer blinded between the study groups using a neuropathological scoring system where injury in cortex was graded from 0-4 with 0 being no observable injury and 4 being confluent infarction encompassing most of the hemisphere. The damage in the hippocampus, thalamus and striatum was assessed regarding both hypothrophy (shrinkage of cells) 0-3 and observable cell injury/infarction 0-3, resulting in a scoring for each region 0-6. The total score 0-22 was the sum score for all the four regions.

Cc1[nH]c2ccccc2c1C[C@@H](NC(=O)[C@@H](N)Cc1cnc[nH]1)C(=O)N[C@@H](C)C(=O)N[C@@H](Cc1c[nH]c2ccccc12)C(=O)N[C@H](Cc1ccccc1)C(=O)N[C@@H](CCCCN)C(N)=O [Hexarelin] (H-H[dTrp(2-Me)]AW[dF]K-NH2)
no differences: body temperature | body weight | mortality
